Assay results reported in publication PMC7558535, “In Vitro Metabolism of DWP16001, a Novel Sodium-Glucose Cotransporter 2 Inhibitor, in Human and Animal Hepatocytes” (Pharmaceutics, 2020).
Like-named read-outs stand apart in the source and are kept apart here. One block for each molecule: values may come before it.

Key:
11 human CYP enzymes = assay: CYP screening, whole panel; assay type: in vitro ADME
Method: DWP16001, M1, or M2 was incubated with 11 human cDNA-expressed CYP enzymes (1A1, 1A2, 2A6, 2B6, 2C8, 2C9, 2C19, 2D6, 2E1, 3A4, and 3A5) to identify the CYP enzymes involved in the metabolism of DWP16001. Reaction mixtures of 95 µL containing DWP16001 (final concentration: 5 µM), M1 or M2 (final concentration: 10 µM), and CYPs (final amount: 10 pmol) were prepared in 0.1 M potassium phosphate buffer (pH 7.4). The reaction was started by adding 5 µL of NADPH-generating system; the mixtures were incubated for 30 min at 37 °C in triplicate. Reactions were stopped by the addition of 400 µL of ice-cold ketoconazole (internal standard, 200 ng/mL) in ice-cold acetonitrile. Samples were centrifuged at 15,000× g for 8 min at 4 °C. Seventy-five microliter aliquots of the supernatants were diluted with 75 µL of deionized water and analyzed using an LC–MS/MS system.

13 human UGT enzymes = assay: UGT screening, whole panel; assay type: in vitro ADME; settings: incubation of M1 with 13 human UGT enzymes and UDPGA
Method: To screen for UGT enzymes responsible for glucuronidation of DWP16001, 100 μL of reaction mixtures containing 13 human cDNA-expressed UGT enzymes (1A1, 1A3, 1A4, 1A6, 1A7, 1A8, 1A9, 1A10, 2B4, 2B7, 2B10, 2B15, and 2B17) at 0.1 mg protein/mL, 5 mM UDPGA, 0.025 mg/mL alamethicin, and 25 μM DWP16001 or M1 in 50 mM Tris buffer (pH 7.4) were incubated at 37 °C for 30 min in triplicate. Reactions were stopped by adding 100 μL of ketoconazole (internal standard, 200 ng/mL) in acetonitrile, followed by vortex-mixing and centrifugation (15,000× g, 8 min, 4 °C). The supernatant (75 μL) was diluted with equal volume of 30% acetonitrile and aliquots (5 μL) were injected into an LC-MS/MS system.

human hepatocytes = settings: cited from earlier work
[1] = human; cited from earlier work
[2] = human, cited from earlier work
[3] = cited from earlier work
SGLT2 = test system: SGLT2; set-up: method as in PMID 32183468; settings: read-out: IC50 (SGLT2 inhibition); cited from earlier work

Formation of M4 from M1 (11 human CYP enzymes; incubation of M1 with 11 human CYP enzymes and NADPH): not detected | Formation of M1 glucuronides U4 and U5 from M1 (13 human UGT enzymes): not formed
SMILES: OC[C@H]1O[C@@H](c2cc(Cc3ccc(C4CC4)cc3)c(Cl)c3c2CC(O)O3)[C@H](O)[C@@H](O)[C@@H]1O (stereo partly drawn) [M1, (2S,3R,4R,5S,6R)-2-(7-chloro-6-(4-cyclopropylbenzyl)-2-hydroxy-2,3-dihydrobenzofuran-4-yl)-6-(hydroxymethyl)tetrahydro-2H-pyran-3,4,5-triol]

SMILES: CCOc1ccc(Cc2cc([C@@H]3O[C@H](CO)[C@@H](O)[C@H](O)[C@H]3O)ccc2Cl)cc1 [dapagliflozin]
Hepatic extraction (human hepatocytes): low | Share of oxidative metabolism (CYP2D6, CYP3A4, CYP2C9 etc.) in metabolism [1]: less than 10% | Increase of AUC ([2]; pretreatment with mefenamic acid 250 mg every 6 h for 5 days): 50% | Decrease of AUC ([2]; repeated rifampin 600 mg/day for 6 days): 22%

Formation of M5 from M2 (11 human CYP enzymes; incubation of M2 with 11 human CYP enzymes and NADPH): not detected
SMILES: OC[C@H]1O[C@@H](c2cc(Cc3ccc(C4(O)CC4)cc3)c(Cl)c3c2CCO3)[C@H](O)[C@@H](O)[C@@H]1O [M2, (2S,3R,4R,5S,6R)-2-(7-chloro-6-(4-(1-hydroxycyclopropyl)benzyl)-2,3-dihydrobenzofuran-4-yl)-6-(hydroxymethyl)tetrahydro-2H-pyran-3,4,5-triol]

SMILES: Cc1ccc([C@@H]2O[C@H](CO)[C@@H](O)[C@H](O)[C@H]2O)cc1Cc1ccc(-c2ccc(F)cc2)s1 [canagliflozin]
Drug interaction on co-administration ([3]; glyburide, metformin, and simvastatin): did not cause significant drug interactions | Increase of AUC ([3]; human, cyclosporine A 400 mg): 23% | Increase of AUC ([3]; human, probenecid 500 mg twice per day for 3 days): 20.7% | Decrease of AUC ([3]; human, repeated rifampin 600 mg/day for 8 days): 48.7%

SMILES: OC[C@H]1O[C@@H](c2ccc(F)c(Cc3cc4ccccc4s3)c2)[C@H](O)[C@@H](O)[C@@H]1O [ipragliflozin]
IC50 (SGLT2): 8.9 ± 1.7 nM
